Measurements published in US20240058265A1, “TREATMENT OF OCULAR DISEASES USING ENDOTHELIN RECEPTOR ANTAGONISTS” (Perfuse Therapeutics, Inc., priority 2021, published 2024).
Where “and” joins values, the source holds several entries; their conditions need not be identical. Identical values can stand only once. Like-named read-outs stand apart in the source and are kept apart here.

Tests used:
[1] = Pharmacokinetics after topical administration in the rabbit; type: in vivo, Dutch-belted rabbits; settings: single topical eye drop 100 μg, 10 minutes, 2 and 7 hours
Protocol: To determine the pharmacokinetic properties of Edonentan following topical administration in the rabbit, rabbits (Dutch-belted rabbits) received an eye drop in both eyes (100 μg of Edonentan, 35 μL dose volume/eye). After the administrations, the animals (N=2) were euthanized at different time points (e.g. 10 minutes (immediately after pot-dose), 2 and 7 hours) and tissues were collected for analysis. List of tissues collected include plasma, retina, vitreous humor and bulbar conjunctiva.

[2] = test system: laser-induced glaucoma eye; assay: Laser-induced glaucoma non-human primate, intraocular pressure after topical administration; type: in vivo, rhesus macaque, Macaca Mulatta; settings: 50 μL eyedrop 2 mg/mL
Protocol: Non-human primates (rhesus macaque, Macaca Mulatta) were obtained for this study. One eye of each animal underwent induction of elevation of intraocular pressure (TOP) by repeated laser photocoagulation of the trabecular meshwork. Imaging sessions were repeated to monitor the optic nerve head (ONH) and retinal structural changes. A single dose of 0.5% Timolol or a single dose of 2 mg/mL Edonentan was topically administered to three non-human primates that have laser-induced glaucoma in their right eyes (OD) with 1-week wash-out in a randomized order.

Stability in solid state = type: physicochemical; settings: 2 h@125° C.
Description: (§1) In the above table, the physicochemical data, e.g., solubility, were obtained following standard protocols known in the field (see, e.g., Reis et al., Mini Rev Med Chem., 2010, 10(11):1071-6; Avdeef et al., Expert Opin Drug Metab Toxicol., 2005, 1(2):325-42; Bharate et al., Comb Chem High Throughput Screen., 2016, 19(6):461-9; and Jain et al., J Pharm Biomed Anal., 2013, 86:11-35.); and the biochemical data, i.e., potency for ETA/ETB, were obtained following the protocols known in the field (see, e.g., Kirkby et al., Br J Pharmacol., 2008, 153(6):1105-19; and Maguire et al., Br J Pharmacol., 2014, 171(24):5555-72.).

[3] = Solubility (pH 2, pH 7, ethyl acetate); type: physicochemical
Description: as §1

[4] = test system: laser-induced glaucoma eye; assay: Laser-induced glaucoma non-human primate, optic nerve head blood flow (LSFG) after IVT administration; type: in vivo, rhesus macaque, Macaca Mulatta; settings: IVT 50 μL of 0.02, 0.2 or 2.0 mg/mL, over 6 hours, glaucomatous eye
Protocol: Non-human primates (rhesus macaque, Macaca Mulatta) were obtained for this study. One eye of each animal underwent induction of elevation of intraocular pressure (TOP) by repeated laser photocoagulation of the trabecular meshwork. Imaging sessions were repeated to monitor the optic nerve head (ONH) and retinal structural changes. A study was performed to compare an experimental glaucoma eye and a contralateral healthy eye (control) of three non-human primates in global average mean blur rate (MBR) and MBR change from baseline over time as an index of ONH blood flow in a laser-induced glaucoma model. More specifically, a vehicle control, 0.02 mg/mL of Edonentan, 0.2 mg/mL of Edonentan, or 2.0 mg/mL of Edonentan was intravitreally administered (50 μL) to a glaucomatous eye of each of three non-human primates (rhesus macaque, Macaca Mulatta). These graphs show the ONH blood flow in the three non-human primates after IVT administration of a vehicle alone (FIG. 7A, FIG. 7E, and FIG. 7I), 0.02 mg/mL of Edonentan (FIG. 7B, FIG. 7F, and FIG. 7J), 0.2 mg/mL of Edonentan (FIG. 7C, FIG. 7G, and FIG. 7K) or 2.0 mg/mL of Edonentan (FIG. 7D, FIG. 7H, and FIG. 7L).

Stability in Solid State (verdict) (Stability in solid state): Stable
Solubility in Ethyl Acetate (rating) ([3]; ethyl acetate): Good
solubility ([3]; ethyl acetate, organic solvent or mixture, read-out: Solubility in Ethyl Acetate): > 8900 µg/mL and > 16800 µM
solubility ([3]; pH 2, simulated gastric fluid, read-out: Solubility at pH 2): < 0.54 µg/mL and < 1 µM
Solubility at pH 7 ([3]; pH 7, amorphous form): 607 μM
SMILES: Cc1onc(NS(=O)(=O)c2ccccc2-c2ccc(-c3ncco3)cc2CN(C)C(=O)CC(C)(C)C)c1C [Edonentan, N-[[2′-[[(4,5-dimethyl-3-isoxazolyl)amino]sulfonyl]-4-(2-oxazolyl)[1,1′-biphenyl]-2-yl]methyl]-N,3,3-trimethylbutanamide]
Detection in plasma, retina, vitreous humor and bulbar conjunctiva [1]: detected in all tissues examined at all timepoints
IOP reduction from pre-dose to post-dose ([2]; Non-human Primate 1, contralateral healthy eye, 120 minutes): about 10%
IOP reduction from pre-dose to post-dose ([2]; Non-human Primate 1, experimental glaucoma eye, 120 minutes): about 60%
IOP reduction from pre-dose to post-dose ([2]; Non-human Primate 2, contralateral healthy eye, 15 minutes): about 20%
IOP reduction from pre-dose to post-dose ([2]; Non-human Primate 2, contralateral healthy eye, 120 minutes): about 0%
IOP reduction from pre-dose to post-dose ([2]; Non-human Primate 2, experimental glaucoma eye, 15 minutes): about 50%
IOP reduction from pre-dose to post-dose ([2]; Non-human Primate 2, experimental glaucoma eye, 120 minutes): about 30%
IOP reduction from pre-dose to post-dose ([2]; Non-human Primate 3, contralateral healthy eye, 15 minutes): about 10%
IOP reduction from pre-dose to post-dose ([2]; Non-human Primate 3, contralateral healthy eye, 120 minutes): about 40%
IOP reduction from pre-dose to post-dose ([2]; Non-human Primate 3, experimental glaucoma eye, 15 minutes): about 40%
IOP reduction from pre-dose to post-dose ([2]; Non-human Primate 3, experimental glaucoma eye, 120 minutes): about 40%
ONH blood flow (mean blur rate, LSFG) [4]: improvement of ONH blood flow in a dose-dependent manner
